Patent US20050019825A9, “Common ligand mimics: pseudothiohydantoins” (priority 2002, published 2005)

Molecular target: dihydrodipicolinate reductase (DHPR) (Escherichia coli, UniProt P04036)
Assay: Screening of bi-ligands for DHPR (Example 25), kinetic assay at 340 nm
Type: biochemical
Conditions: Cibacron Blue at 2.58 μM, Example 25; read-out: inhibition of DHPR, positive control
Description: Screening of Biligands for Binding to Dihydrodipicolinate Reductase (DHPR)
This example describes the screening of bi-ligands having common ligand mimics for binding activity to dihydrodipicolinate reductase (DHPR).
Bi-ligands were produced by the methods of Examples 16 to 18. The bi-ligands were screened for binding to DHPR.
Stock solutions of each of the reagents were prepared in the following concentrations. Dilutions of the stock solutions were prepared prior to running the assay in the concentrations indicated below. Dilution of DHPR was prepared in 10 mM HEPES at a pH of 7.4. DHPS was not diluted and was stored in eppindorf tubes.
The L-ASA solution was prepared in the following manner. 180 μM stock solution of ASA was prepared. 100 μl of the ASA stock was mixed with 150 μl of concentrated NaHCO3 and 375 μl of […]. For use in the assay, 28.8 mM L-ASA equal 625 μl of the solution. The L-ASA stock solution was kept at a temperature of −20° C. After dilution, the pH of the 28.8 mM solution was checked and maintained between 1 and 2.
First, the DHPS reaction was monitored at 340 nm prior to and after addition of the inhibitor to detect background reaction with the inhibitor. The solution for background detection was a 945 μl solution containing 0.1 HEPES (pH 7.8), 1 mM pyruvate, 6 μM NADPH, 40 μM L-ASA, and 7 μl of 1 mg/ml DHPS at 25° C. in the volumes provided above. The sample solution was then mixed and incubated for 10 minutes. Next, 500 nM solutions of the inhibitors and enough DMSO to provide a final DMSO concentration of 5% were added. The solution was mixed and incubated for an additional 6 minutes.
In DHPR samples, 5 μl of the diluted DHPR enzyme were added. The sample was mixed for 20 seconds and then the reaction was run for 10 minutes. After a 50 second lag, the samples were read in a Cary spectrophotometer at 340 nm. Reading of the samples was continued until 300 seconds. Cuvette #1 contained the control reaction (no inhibitor), and cuvette #2 contained the positive control reaction in which Cibacron Blue at 2.58 μM was substituted for inhibitor to yield 70 to 80% inhibition. The substrate and NADPH or NAHD were kept near their Km values.

dihydrodipicolinate reductase (DHPR), sequence (P04036 whole entry): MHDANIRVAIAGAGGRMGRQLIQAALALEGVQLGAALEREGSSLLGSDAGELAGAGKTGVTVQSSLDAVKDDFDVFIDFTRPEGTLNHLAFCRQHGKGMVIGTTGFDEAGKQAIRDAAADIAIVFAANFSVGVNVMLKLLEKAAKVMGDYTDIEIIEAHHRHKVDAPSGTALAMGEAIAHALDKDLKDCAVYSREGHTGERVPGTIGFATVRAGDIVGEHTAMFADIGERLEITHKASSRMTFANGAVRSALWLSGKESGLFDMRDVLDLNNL

With Nc1c(S(=O)(=O)O)cc(Nc2ccc(Nc3nc(Cl)nc(Nc4ccccc4S(=O)(=O)O)n3)c(S(=O)(=O)O)c2)c2c1C(=O)c1ccccc1C2=O [Cibacron Blue, reference compound] the inhibition at 2.58 µM was 70 to 80%.
